Laboratory results published in patent US20220378739A1, “NATURAL KILLER CELL IMMUNOTHERAPY FOR THE TREATMENT OF GLIOBLASTOMA AND OTHER CANCERS” (BOARD OF REGENTS, THE UNIVERSITY OF TEXAS SYSTEM, priority 2019, published 2022).

What was measured:
[1] = test system: TGF-β1 Smad⅔ signaling pathway in NK cells; test: Phospho-Smad⅔ assay in NK cells co-cultured with GSCs; assay type: cell-based, human; settings: healthy control NK cells + GSCs; inhibitor 10 μM
Method: GSCs and purified NK cells were co-cultured for 48 hours in the presence of anti-TGFβ 123 (5 μg/ml) (R&D), HLA-ABC blocking antibody (clone W 6/32, Biolegend), CD44 blocking antibody (clone IM7, Biolegend), ILT-2 (CD85J) blocking antibody (clone HP-F1, ThermoFisher), CD155 blocking antibody (clone D171, GenTex), CD112 blocking antibody (clone TX31, Biolegend), 10 μM LY2109761, 10 μM galunisertib (LY2157299), 10 μM Cilengitide (Cayman Chemical) or 1 μM MMP-2/MMP-9 inhibitor I (Millipore). Cytotoxicity assays were then performed as described above.
NK cells were stained with Live/dead-aqua and CD56 ECD (Beckman Coulter) for 20 min in the dark at RT, washed with PBS fixed for 10 min in the dark. After one wash, the cells were permeabilized (Beckman Coulter kit) and stained with p-(5465/5467)-Smad2/p-(5423/5425)/Smad3-Alexa 647 mAb Phosflow antibody (BD Biosciences) for 30 minutes at room temperature. Cells incubated with 10 ng/ml recombinant TGF-β for 45 minutes in 37° C. were used as positive control.

patient-derived GSCs = test: Xenogeneic (PDX) NSG mouse model of GBM; assay type: in vivo
Method: To test this prediction, a PDX mouse model of patient-derived GSC was used, in which, ffLuc+ patient-derived GSCs (0.5×10^6) were stereotactically implanted on day 0 through a guide-screw into the right forebrain of NOD/SCID/IL2Rγc null mice (n=4-5 per group). After 7 days, the mice were treated intratumorally with 2.0×10^6 human NK cells every 7 days for 11 weeks (FIG. 5A) with either galunisertib to block the TGF-β signaling or cilengitide to block the integrin pathway. Galunisertib was administered five times a week by oral gavage and cilengitide three times a week by intraperitoneal injection. Animals implanted with tumor that were either untreated or received NK cells alone, galunisertib alone or cilengitide alone served as controls.
To assess the anti-tumor effect of NK cells against GSCs in vivo, a NOD/SCID IL-2R7null (NSG) human xenograft model (Jackson Laboratories, Bar Harbor, Me.) was used. Intracranial implantation of GSCs into male mice was performed as previously described^55. A total of 60 mice were used. 0.5×10^5 GSCs were implanted intracranially into the right frontal lobe of 5 week old NSG mice using a guide-screw system implanted within the skull. To increase uniformity of xenograft uptake and growth, cells were injected into 10 animals simultaneously using a multiport Microinfusion Syringe Pump (Harvard Apparatus, Holliston, Mass.). Animals were anesthetized with xylazine/ketamine during the procedure. For in vivo bioluminescent imaging, GSCs were engineered to express luciferase by lentivirus transduction. Kinetics of tumor growth was monitored using weekly bioluminescence imaging (BLI; Xenogen-IVIS 200 Imaging system; Caliper, Waltham, Mass.). Signal quantitation in photons/second (p/s) was performed by determining the photon flux rate within standardized regions of interest (ROI) using Living Image software (Caliper). […] expanded donor peripheral blood NK cells^56 were injected intracranially via the guide-screw at day 7 post tumor implantation, and then every 7 days for 11 weeks. Mice were treated with either cilengitide or galunisertib (both from MCE Med Chem Express, Monmouth Junction, NJ) in the presence or absence of intracranial NK cell injection. Cilengitide was administered intraperitoneally 3 times a week starting at day 1 (250 μg/100 μl PBS) while galunisertib was administered orally (75 mg/kg) by gavage 5 days a week starting at day 1 (see FIG. 5A). […]
Brain tissue specimens from untreated control mice, mice treated with either NK cells alone, cilengitide alone, galunisertib alone or with combination therapy of NK+ cilengitide or NK+ galunisertib were collected. […] Sections lacking tumor were also evaluated for evidence of meningoencephalitis using a Leica DM 2500 light microscope by a board-certified veterinary pathologist. […]

Cc1cccc(-c2nn3c(c2-c2ccnc4ccc(C(N)=O)cc24)CCC3)n1 [galunisertib]
p-Smad⅔ expression (MFI) in NK cells co-cultured with GSCs [1]: prevented GSCs from activating the TGF-β1 Smad⅔ signaling pathway in NK cells | tumor bioluminescence (BLI), first experiment (patient-derived GSCs; NK cells intratumorally every 7 days for 11 weeks, galunisertib oral 5 times a week, cilengitide i.p. three times a week): tumor bioluminescence rapidly increased | NK-mediated GBM killing / efficacy in PDX model of GBM (summary statements) (patient-derived GSCs; mouse, in vivo): enhances NK-mediated GBM killing in vivo
